According to US9808461B2, “Protection of renal tissues from ischemia through inhibition of the proliferative kinases CDK4 and CDK6” (The University of North Carolina at Chapel Hill, priority 2010, dated 2017):
Entries after “also recorded” stand apart in the source; their conditions may differ.

Assays:
[1] = tested on: primary human renal proximal tubule epithelial cells; experiment: Cell cycle analysis (propidium iodide staining, flow cytometry); assay type: cell-based; settings: 0, 10 nM, 30 nM, 100 nM, 300 nM or 1 μM for 16 hours
Description: Representative histograms of cell cycle analysis of primary human renal proximal tubule epithelial cells treated with varying concentrations (0 nM, 10 nM, 30 nM, 100 nM, 300 nM, or 1 μM) of 6-acetyl-8-cyclopentyl-5-methyl-2-(5-piperazin-1-yl-pyridin-2-ylamino)-8H-pyrido-[2,3-d]pyrimidin-7-one (PD0332991) for 16 hours. Cells were harvested, fixed, stained, and analyzed by flow cytometry. Data was fitted using Mod-Fit™ software from Verity (Verity Software House, Topsham, Me., United States of America). […] Cell cycle analysis of primary human renal proximal tubule epithelial cells treated with varying concentrations (0 nM, 10 nM, 30 nM, 100 nM, 300 nM, or 1 μM) of 6-acetyl-8-cyclopentyl-5-methyl-2-(5-piperazin-1-yl-pyridin-2-ylamino)-8H-pyrido-[2,3-d]pyrimidin-7-one (PD0332991) for 16 hours. Cells were harvested, fixed, stained, and analyzed by flow cytometry. Data was fitted using Mod-Fit™ software from Verity (Verity Software House, Topsham, Me., United States of America). […] Samples were processed and the DNA was stained with propidium iodide (PI) solution and analyzed by flow cytometry. FCS files from flow cytometer were further analyzed using cell cycle analysis software ModFit™ from Verity (Verity Software House, Topsham, Me., United States of America), where cell cycle fractions were calculated as a percentage of the whole population.

[2] = tested on: primary human renal proximal tubule epithelial cells; experiment: Cell proliferation, CellTiter-Glo; assay type: cell-based; settings: 10 nM to 3 μM, 72 hours post treatment
Description: Cells were treated with varying concentrations (0 nM, 10 nM, 30 nM, 100 nM, 300 nM, or 1 μM) of 6-acetyl-8-cyclopentyl-5-methyl-2-(5-piperazin-1-yl-pyridin-2-ylamino)-8H-pyrido-[2,3-d]pyrimidin-7-one (PD0332991) for 72 hours. Following incubation, cell proliferation was quantified using CellTiter-Glo® (Promega, Madison, Wis., United States of America). Data represent the mean of four replicates (relative light units, RLU)+/−standard deviation. Inhibition of CDK4/6 blocks the proliferation of normal human primary renal proximal tubule epithelial cells. These cells were seeded at an appropriate density in 96 well plates and incubated for 24 hours at 37° C. in a humidified incubator at 5% CO2. Cells were then exposed to a potent and selective CDK4/6 inhibitor, in this case PD0332991, across a broad dose range 24 hours later. The dose range explored is 0, 10 nM, 30 nM, 100 nM, 300 nM, 1 μM or 3 μM PD0332991. Seventy-two hours post exposure, the CDK4/6 inhibited cells were treated with CellTiter-Glo® (Promega, Madison, Wis., United States of America) using manufacturer's specifications. The plate was read in luminometer at 1 second/well. Results were placed in Microsoft Excel and analyzed.

[3] = Serum creatinine after bilateral ischemia reperfusion injury; assay type: in vivo, mice; settings: 150 mg/kg oral gavage 1 hour prior to bilateral IRI; N=9; vehicle group 2.27
Description: PD0332991 was dissolved in 50 mM sodium lactate buffer (pH 4.0) to a final concentration of 15 mg/mL. Mice were treated with a 150 mg/kg dose of PD0332991, or vehicle, 1 hour prior to ischemia reperfusion surgery by oral gavage. 8 week old male mice were anesthetized with pentobarbital sodium (60 mg/kg body weight, intraperitoneally) prior to surgery. Body temperatures were controlled at 36.5° C.-37.5° C. throughout the procedure. Bilateral flank incisions into the peritoneum allowed access to both kidneys. Kidneys were exposed and ischemia was induced by simultaneously clamping the renal pedicle of both kidneys with nontraumatic microaneurysm clamps (Roboz, Rockville, Md.). Clamped kidneys were placed back into the peritoneal cavity for 28 minutes, and clamps were then removed resulting in reperfusion injury. The flank incisions were closed with wound clips and the mice were allowed to recover in their home cages. […] Serum creatinine was measured by the Beckman Creatinine Analyzer 2, which utilizes a 10 mM picric acid solution mixed with a buffer containing 10 mM sodium borate, 240 mM sodium hydroxide, and 10 mM sodium dodecyl sulfate (SDS). Serum creatinine is measured against a creatinine standard and recorded as milligrams per deciliter.

renal epithelial cells = experiment: BrdU incorporation into renal epithelial cells after ischemia reperfusion injury; assay type: in vivo, mice
Description: FIG. 3A is a schematic diagram showing a dosing schedule for studies of 5-bromo-2-deoxyuridine (BrdU) incorporation into epithelial cells following ischemic reperfusion injury after a single dosing of a CDK4/6 inhibitor. Mice were treated with 6-acetyl-8-cyclopentyl-5-methyl-2-(5-piperazin-1-yl-pyridin-2-ylamino)-8H-pyrido-[2,3-d]pyrimidin-7-one (PD0332991; 150 mg/kg) or vehicle (sodium lactate buffer) by oral gavage one hour before ischemic reperfusion injury. BrdU (100 mg/kg) was administered via i.p. injection 21 hours after injury. Mice were sacrificed 3 hours after the BrdU injection, and BrdU incorporation into the renal epithelial cells was quantified. […] Three hours following the second injection of BrdU, the mice were sacrificed and BrdU incorporation into the renal epithelial cells was quantified. […] Kidney cell proliferation following ischemia reperfusion injury (IRI) was monitored (based on BrdU incorporation in renal epithelial cells) following a one time, pre-IRI PD0332991 or vehicle (sodium lactate buffer) dosing as shown in FIG. 3A and following a two time (once pre-IRI and once post-IRI) PD0332991 or vehicle dosing as shown in FIG. 3B. […] BrdU positive (BrdU(+)) cells were quantified visually by counting the number of BrdU(+) cells in a field of kidney epithelial cells under magnification. […]

CC(=O)c1c(C)c2cnc(Nc3ccc(N4CCNCC4)cn3)nc2n(C2CCCC2)c1=O [PD0332991, 6-acetyl-8-cyclopentyl-5-methyl-2-(5-piperazin-1-yl-pyridin-2-ylamino)-8H-pyrido-[2,3-d]-pyrimidin-7-one]
G1 cell cycle arrest [1]: induces a G1 arrest; also recorded: “clean” G1-arrest without evidence of cytotoxicity
cell cycle fractions (G0/G1, G2/M, S-phase) [1]: dose dependent increase in the G0/G1 fraction of the cell cycle was observed with a consummate decrease in both G2/M and S-phase fractions
cell proliferation (relative light units) compared to DMSO control [2]: clear dose dependent inhibition of cell proliferation; also recorded: blocks proliferation
average serum creatinine 24 hours after surgery [3]: 1.74 mg/dL
BrdU(+) renal epithelial cells 24 hours after injury, versus vehicle (renal epithelial cells; 150 mg/kg oral gavage one time, 1 hour before IRI (FIG. 3A schedule)): significantly less BrdU(+) cells; also recorded: prevents epithelial cells from entering S-phase
BrdU incorporation in renal epithelial cells 48 hours after injury, versus vehicle (renal epithelial cells; 150 mg/kg oral gavage two doses, once pre-IRI and once post-IRI (FIG. 3B schedule)): less BrdU incorporation; also recorded: prevents epithelial cells from entering S-phase
